According to ChEMBL document CHEMBL4229479, “Synthesis and evaluation of panaxatriol derivatives as Na+, K+-ATPase inhibitors” (Bioorg Med Chem Lett, 2018):

Tests used:
[1] = target: Sodium/potassium-transporting ATPase; assay: Inhibition of human Na+/K+-ATPase assessed as reduction in inorganic phosphate release from ATP incubated for 15 mins followed by ATP addition measured over 15 mins in presence of Na+/K+ by colorimetric method; format: protein-complex assay
[2] = Arrhythmogenic activity in Langendorff-perfused heart rat model at 0.26 umol/L administered for 30 mins following 60 mins perfusion with K-H solution; format: toxicity, tissue-based; conditions: 0.5 h, 0.26 µM

SMILES | IC50 [1] [µM] | Activity [2] [%]
CC1(C)CCC[C@](C)([C@H]2CC[C@]3(C)[C@@H]2C(=O)C[C@@H]2[C@@]4(C)CCC(=O)C(C)(C)[C@@H]4[C@@H](O)C[C@]23C)O1 | 0.7 | –
COC(=O)CC[C@@]1(C)CC(=O)C[C@]2(C)[C@@H]1C[C@@H](O)[C@@H]1[C@@H]([C@@]3(C)CCCC(C)(C)O3)CC[C@]12C | 0.41 | –
CC1(C)CCC[C@](C)([C@H]2CC[C@]3(C)[C@@H]2C(=O)C[C@@H]2[C@@]4(C)CCC(=O)OC(C)(C)[C@@H]4[C@@H](O)C[C@]23C)O1 | 1.23 | –
COC(=O)CC[C@]1(C)[C@H]2C[C@@H](O)[C@@H]3[C@@H]([C@@]4(C)CCCC(C)(C)O4)CC[C@@]3(C)[C@]2(C)CC(=O)[C@H]1C(C)(C)O | 0.26 | 0
CC1(C)CCC[C@](C)([C@H]2CC[C@]3(C)[C@@H]2C(=O)C[C@@H]2[C@@]4(C)CCC(=O)OC(C)(C)[C@@H]4C(=O)C[C@]23C)O1 | 1.13 | –
CC1(C)CCC[C@](C)([C@H]2CC[C@]3(C)[C@@H]2[C@H](O)C[C@@H]2[C@@]4(C)CC[C@H](OCc5ccccc5)C(C)(C)[C@@H]4C(=O)C[C@]23C)O1 | 0.3 | –
C=CCO[C@H]1C[C@]2(C)[C@H](C[C@@H](O)[C@@H]3[C@@H]([C@@]4(C)CCCC(C)(C)O4)CC[C@]32C)[C@@]2(C)CCC(=O)C(C)(C)[C@H]12 | 0.91 | –
CCOC(=O)NC(=S)O[C@H]1CC[C@]2(C)[C@H]3C[C@@H](O)[C@@H]4[C@@H]([C@@]5(C)CCCC(C)(C)O5)CC[C@@]4(C)[C@]3(C)CC(=O)[C@H]2C1(C)C | 1.38 | –
CC1(C)CCC[C@](C)([C@H]2CC[C@]3(C)[C@@H]2[C@H](O)C[C@@H]2[C@@]4(C)CCC(=O)OC(C)(C)[C@@H]4C(=O)C[C@]23C)O1 | 1.18 | –
CC1(C)CCC[C@](C)([C@H]2CC[C@]3(C)[C@@H]2[C@H](O)C[C@@H]2[C@@]4(C)CC[C@H](O)C(C)(C)[C@@H]4C(=O)C[C@]23C)O1 | 1.18 | –
C=C(C)[C@@H]1C(=O)C[C@]2(C)[C@H](C[C@@H](O)[C@@H]3[C@@H]([C@@]4(C)CCCC(C)(C)O4)CC[C@]32C)[C@@]1(C)CCC(=O)OC | 1.09 | –
CC1(C)CCC[C@](C)([C@H]2CC[C@]3(C)[C@@H]2[C@H](O)C[C@@H]2[C@@]4(C)Cc5c([nH]c6ccccc56)C(C)(C)[C@@H]4C(=O)C[C@]23C)O1 | 0.77 | –
C=CCO[C@H]1C[C@]2(C)[C@H](C[C@@H](OCC=C)[C@@H]3[C@@H]([C@@]4(C)CCCC(C)(C)O4)CC[C@]32C)[C@@]2(C)CCC(=O)C(C)(C)[C@H]12 | 0.75 | –
CC1(C)CCC[C@](C)([C@H]2CC[C@]3(C)[C@@H]2[C@H](O)C[C@@H]2[C@@]4(C)Cc5c([nH]c6ccc(F)cc56)C(C)(C)[C@@H]4C(=O)C[C@]23C)O1 | 0.91 | –
CC1(C)CCC[C@](C)([C@H]2CC[C@]3(C)[C@@H]2[C@H](O)C[C@@H]2[C@@]4(C)CCC(=O)NC(C)(C)[C@@H]4C(=O)C[C@]23C)O1 | 0.41 | –
CCO[C@H]1CC[C@]2(C)[C@H]3C[C@@H](O)[C@@H]4[C@@H]([C@@]5(C)CCCC(C)(C)O5)CC[C@@]4(C)[C@]3(C)CC(=O)[C@H]2C1(C)C | 1.14 | –
CC1(C)CCC[C@](C)([C@H]2CC[C@]3(C)[C@@H]2[C@H](O)C[C@@H]2[C@@]4(C)CCC(=O)C(C)(C)[C@@H]4[C@@H](O)C[C@]23C)O1 | 1.14 | –
CC1(C)CCC[C@](C)([C@H]2CC[C@]3(C)[C@@H]2[C@H](OCc2ccccc2)C[C@@H]2[C@@]4(C)CCC(=O)C(C)(C)[C@@H]4[C@@H](OCc4ccccc4)C[C@]23C)O1 | 0.87 | –
CC1(C)CCC[C@](C)([C@H]2CC[C@]3(C)[C@@H]2[C@H](O)C[C@@H]2[C@@](C)(CCC(=O)O)CC(=O)C[C@]23C)O1 | 0.54 | –
CC1(C)CCC[C@](C)([C@H]2CC[C@]3(C)[C@@H]2[C@H](O)C[C@@H]2[C@@]4(C)Cc5c([nH]c6ccc(OC(F)(F)F)cc56)C(C)(C)[C@@H]4C(=O)C[C@]23C)O1 | 0.36 | –
CC1(C)CCC[C@](C)([C@H]2CC[C@]3(C)[C@@H]2[C@H](O)C[C@@H]2[C@@]4(C)CCC(=O)C(C)(C)[C@@H]4[C@@H](OCc4ccccc4)C[C@]23C)O1 | 0.33 | –
CC1(C)CCC[C@](C)([C@H]2CC[C@]3(C)[C@@H]2[C@H](O)C[C@@H]2[C@@]4(C)CC[C@H](OCc5ccc(OC(F)(F)F)cc5)C(C)(C)[C@@H]4C(=O)C[C@]23C)O1 | 0.45 | –
C=CCO[C@H]1CC[C@]2(C)[C@H]3C[C@@H](O)[C@@H]4[C@@H]([C@@]5(C)CCCC(C)(C)O5)CC[C@@]4(C)[C@]3(C)CC(=O)[C@H]2C1(C)C | 1.05 | –
CC1(C)CCC[C@](C)([C@H]2CC[C@]3(C)[C@@H]2[C@H](O)C[C@@H]2[C@@]4(C)CC[C@H](Oc5noc(=O)[nH]5)C(C)(C)[C@@H]4C(=O)C[C@]23C)O1 | 0.96 | –
CC1(C)CCC[C@](C)([C@H]2CC[C@]3(C)[C@@H]2C(=O)C[C@@H]2[C@@]4(C)CCC(=O)C(C)(C)[C@@H]4C(=O)C[C@]23C)O1 | 0.76 | –
CC1(C)CCC[C@](C)([C@H]2CC[C@]3(C)[C@@H]2[C@H](O)C[C@@H]2[C@@]4(C)CCC(=O)C(C)(C)[C@@H]4C(=O)C[C@]23C)O1 | 0.81 | –
C[C@H]1O[C@@H](O[C@H]2[C@@H](O)C[C@H](O[C@H]3[C@@H](O)C[C@H](O[C@H]4CC[C@@]5(C)[C@H](CC[C@@H]6[C@@H]5C[C@@H](O)[C@]5(C)[C@@H](C7=CC(=O)OC7)CC[C@]65O)C4)O[C@@H]3C)O[C@@H]2C)C[C@H](O)[C@@H]1O [DIGOXIN] | – | 50
CC1(C)CCC[C@](C)([C@H]2CC[C@]3(C)[C@@H]2[C@H](O)C[C@@H]2[C@@]4(C)CC[C@H](O)C(C)(C)[C@@H]4[C@@H](O)C[C@]23C)O1 [PANAXATRIOL] | 1.09 | –
